Reference: publication PMC10199020 (Nature Communications, 2023)
“Also recorded” adds a separate entry of the source. Bridge positions count the residues as written; N and C are the ends. Square brackets hold non-standard residues; d marks the D form. Peptide text beside a SMILES is read from it. * marks the point of attachment. 5TAMRA = CN(C)c1ccc2c(c1)Oc1cc(N(C)C)ccc1C21OC(=O)c2cc(C(=O)*)ccc21; 2Nal = N[C@@H](Cc1ccc2ccccc2c1)C(=O)O; Pen = CC(C)(S)[C@H](N)C(=O)O; Aib = CC(C)(N)C(=O)O

Assays:
[1] = target: T1, NL-IL23R (Homo sapiens, UniProt Q5VWK5); assay: P630-TMR NanoBRET binding assay, NL-IL23R alone; settings: for BRET ratio, Specific (Mean) / BRET ratio, Non-specific (Mean): Fig. 2c; for BRET ratio, Non-specific (Mean): with 10 μM P630; for BRET ratio with non-specific binding subtracted (Mean): Figure 2 sheet Panel f; for BRET ratio with non-specific binding subtracted (Mean) / % maximum BRET ratio / % of P630-TMR specific Bmax (Mean): NL-IL23R; for % maximum BRET ratio / % of P630-TMR specific Bmax (Mean): Figure 2 sheet Panel g, Fig. 3d
T1 construct: expressed in transfected cells; host or cells: HEK293T, transient transfection
T1 sequence (Q5VWK5 24-629): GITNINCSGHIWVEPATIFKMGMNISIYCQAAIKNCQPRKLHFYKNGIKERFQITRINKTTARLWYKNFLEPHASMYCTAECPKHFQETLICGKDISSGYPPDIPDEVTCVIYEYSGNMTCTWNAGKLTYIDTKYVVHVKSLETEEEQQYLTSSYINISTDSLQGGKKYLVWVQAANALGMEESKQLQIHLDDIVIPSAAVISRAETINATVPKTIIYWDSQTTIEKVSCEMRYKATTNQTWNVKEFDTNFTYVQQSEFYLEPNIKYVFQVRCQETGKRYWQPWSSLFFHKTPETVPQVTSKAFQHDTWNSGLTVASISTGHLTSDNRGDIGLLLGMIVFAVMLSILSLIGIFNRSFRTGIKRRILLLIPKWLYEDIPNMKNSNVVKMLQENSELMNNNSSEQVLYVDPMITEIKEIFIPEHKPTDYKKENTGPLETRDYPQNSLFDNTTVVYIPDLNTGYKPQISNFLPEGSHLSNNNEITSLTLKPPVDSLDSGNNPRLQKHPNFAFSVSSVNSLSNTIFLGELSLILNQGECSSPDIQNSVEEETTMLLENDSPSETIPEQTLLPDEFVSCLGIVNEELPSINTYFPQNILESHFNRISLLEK
Description: (§1) A standard curve was used to predict the expression level of NanoLuc labelled receptor in each experiment (Supplementary Fig. 1).
(§2) Fig. 2 Creation and characterisation of a fluorescent cyclic peptide probe for IL23R. […] Data are normally mean ± SEM from five independent experiments. Details on absolute number of data points included for each concentration are provided in the associated Source Data file. In each individual saturation experiment triplicate determinations were normally made for total binding and duplicate measurements were made for non-specific binding.
(§3) Media was removed from white 96-well microplates containing transfected cells and replaced with fluoroprobe in the presence or absence of antagonist in 50 μL Hanks Balanced Salt Solution (HBSS) with 1 mg/mL BSA (Merck). After a 1-hour incubation at 37 °C without CO2, 5 μL of HBSS containing 77 μM furimizine was added to each well (final concentration 7 μM), the plate incubated for 5-minutes and the BRET signal measured using a PheraStar FS plate reader (BMG Labtech; data acquisition software version 5.41; MARS analysis software version 3.32) with a 450 ± 30 nm and >550 nm long pass filters.
(§4) Ligand binding data were fitted with the equation:2 BRETratio=Bmax[A]/([A]+KD)+(BA+C). Where ‘Bmax’ is the maximum specific binding BRET signal, ‘[A]’ is fluorescent probe concentration, ‘B’ is the non-specific binding component’s slope and ‘C’ is the Y intercept.
(§5) Specific binding data was generated by subtracting the BRET values gained in the presence of an excess of unlabelled probe from the BRET ratios gained in the absence of unlabelled probe. Specific binding data were fit using the equation:3 Y=Bmax[B]/(B+KD) where ‘Bmax’ is the maximum specific binding signal of the curve and ‘[B]’ is the concentration of fluorescent probe.

[2] = target: T2, NL-IL12Rβ1 (Homo sapiens, UniProt P42701); assay: P630-TMR NanoBRET binding assay, NL-IL12Rβ1 alone; settings: for Specific binding BRET ratio (Mean): Fig. 2h, NL-IL12RB1
T2 construct: expressed in transfected cells; host or cells: HEK293T, transient transfection
Description: as §2
Finally, we utilised a NanoBiT BRET system in which a complemented luciferase with fragments bound to both receptor subunits (Fig. 3) can be used as a BRET donor to measure interactions with binary receptor complexes.
as §3, §5

[3] = target: T3, NL-IL12Rβ1 with IL23R (Homo sapiens, UniProt Q5VWK5); assay: P630-TMR NanoBRET binding assay, NL-IL12Rβ1 with IL23R; settings: for BRET ratio, Specific (Mean) / BRET ratio, Non-specific (Mean): Fig. 2e; for BRET ratio, Non-specific (Mean): with 10 μM P630; for % maximum BRET ratio (Mean): Figure 2 sheet Panel g; for % maximum BRET ratio (Mean) / BRET ratio with non-specific binding subtracted (Mean): IL23R + NL-IL12RB1; for BRET ratio with non-specific binding subtracted (Mean): Figure 2 sheet Panels f, h
T3 construct: untagged full-length IL23R could be measured in the membranes of living cells; expressed in transfected cells; host or cells: HEK293T, transient transfection
Description: as §1, §2, §3, §4, §5

[4] = NL-IL23R alone, P630-TMR 0.457247 nM
[5] = NL-IL23R alone, P630-TMR 1.37174 nM
[6] = NL-IL23R alone, P630-TMR 4.11523 nM
[7] = NL-IL23R alone, P630-TMR 12.3457 nM
[8] = NL-IL23R alone, P630-TMR 37.037 nM
[9] = NL-IL23R alone, P630-TMR 111.111 nM
[10] = NL-IL23R alone, P630-TMR 1000 nM
[11] = NL-IL23R alone, P630-TMR 3000 nM
[12] = NL-IL12Rβ1 and IL23R, P630-TMR 0.457247 nM
[13] = NL-IL12Rβ1 and IL23R, P630-TMR 1.37174 nM
[14] = NL-IL12Rβ1 and IL23R, P630-TMR 4.11523 nM
[15] = NL-IL12Rβ1 and IL23R, P630-TMR 12.3457 nM
[16] = NL-IL12Rβ1 and IL23R, P630-TMR 37.037 nM
[17] = NL-IL12Rβ1 and IL23R, P630-TMR 111.111 nM
[18] = NL-IL12Rβ1 and IL23R, P630-TMR 1000 nM
[19] = NL-IL12Rβ1 and IL23R, P630-TMR 3000 nM

COc1ccc(C[C@H](NC(=O)[C@H]2NC(=O)[C@H](CCC(N)=O)NC(=O)[C@H](Cc3c[nH]c4ccccc34)NC(=O)[C@H]([C@@H](C)O)NC(=O)[C@H](CC(N)=O)NC(=O)[C@@H](NC(C)=O)C(C)(C)SSC2(C)C)C(=O)N[C@@H](Cc2ccc3ccccc3c2)C(=O)NC(C)(C)C(=O)N[C@@H](CCC(=O)O)C(=O)N[C@@H](CC(N)=O)C(=O)N[C@@H](CC(N)=O)C(=O)N[C@@H](CCCCNC(=O)c2ccc3c(c2)C(=O)OC32c3ccc(N(C)C)cc3Oc3cc(N(C)C)ccc32)C(N)=O)cc1 [P630-TMR] (Ac-[Pen]NTWQ[Pen]Y(Me)[2Nal][Aib]ENNK(5TAMRA)-NH2; disulfide 1-6)
BRET ratio, Specific (Mean) [1, 4]: 0.2582
BRET ratio, Specific (Mean) [1, 5]: 0.3055
BRET ratio, Specific (Mean) [1, 6]: 0.425
BRET ratio, Specific (Mean) [1, 7]: 0.7682
BRET ratio, Specific (Mean) [1, 8]: 1.473
BRET ratio, Specific (Mean) [1, 9]: 2.644
BRET ratio, Specific (Mean) [1, 10]: 4.095
BRET ratio, Specific (Mean) [1, 11]: 5.137
BRET ratio, Non-specific (Mean) [1, 4]: 0.2458
BRET ratio, Non-specific (Mean) [1, 5]: 0.2417
BRET ratio, Non-specific (Mean) [1, 6]: 0.2509
BRET ratio, Non-specific (Mean) [1, 7]: 0.245
BRET ratio, Non-specific (Mean) [1, 8]: 0.2505
BRET ratio, Non-specific (Mean) [1, 9]: 0.2646
BRET ratio, Non-specific (Mean) [1, 10]: 0.4272
BRET ratio, Non-specific (Mean) [1, 11]: 0.8664
BRET ratio, Non-specific (Mean) ([1]; NL-IL23R alone, P630-TMR […]): 0.2988
BRET ratio with non-specific binding subtracted (Mean) ([1]; P630-TMR 0.457247 nM): 0.01938
BRET ratio with non-specific binding subtracted (Mean) ([1]; P630-TMR 1.37174 nM): 0.8164
BRET ratio with non-specific binding subtracted (Mean) ([1]; P630-TMR 4.11523 nM): 2.963
BRET ratio with non-specific binding subtracted (Mean) ([1]; P630-TMR 12.3457 nM): 2.778
BRET ratio with non-specific binding subtracted (Mean) ([1]; P630-TMR 37.037 nM): 2.936
BRET ratio with non-specific binding subtracted (Mean) ([1]; P630-TMR 111.111 nM): 9.572
BRET ratio with non-specific binding subtracted (Mean) ([1]; P630-TMR 1000 nM): 15.1461
BRET ratio with non-specific binding subtracted (Mean) ([1]; P630-TMR 3000 nM): 19.8619
% maximum BRET ratio / % of P630-TMR specific Bmax (Mean) ([1]; P630-TMR 0.457247 nM): 0.5534%
% maximum BRET ratio / % of P630-TMR specific Bmax (Mean) ([1]; P630-TMR 1.37174 nM): 1.759%
% maximum BRET ratio / % of P630-TMR specific Bmax (Mean) ([1]; P630-TMR 4.11523 nM): 4.853%
% maximum BRET ratio / % of P630-TMR specific Bmax (Mean) ([1]; P630-TMR 12.3457 nM): 14.5245%
% maximum BRET ratio / % of P630-TMR specific Bmax (Mean) ([1]; P630-TMR 37.037 nM): 33.5672%
% maximum BRET ratio / % of P630-TMR specific Bmax (Mean) ([1]; P630-TMR 111.111 nM): 64.3078%
% maximum BRET ratio / % of P630-TMR specific Bmax (Mean) ([1]; P630-TMR 1000 nM): 100.336%
% maximum BRET ratio / % of P630-TMR specific Bmax (Mean) ([1]; P630-TMR 3000 nM): 99.0015%
Kd ([1]; NL-IL23R alone, mean ± SEM): 0.101 ± 0.004 µM
Bmax, fold higher than NL-IL23R with IL12Rβ1 ([1]; NL-IL23R in isolation): 4.04 fold
Specific binding BRET ratio (Mean) ([2]; P630-TMR 1.37174 nM): -0.001356
Specific binding BRET ratio (Mean) ([2]; P630-TMR 4.11523 nM): 0.00137
Specific binding BRET ratio (Mean) ([2]; P630-TMR 12.3457 nM): 0.0001891
Specific binding BRET ratio (Mean) ([2]; P630-TMR 37.037 nM): 0.00136
Specific binding BRET ratio (Mean) ([2]; P630-TMR 111.111 nM): 0.002083
Specific binding BRET ratio (Mean) ([2]; P630-TMR 1000 nM): 0.003104
Specific binding BRET ratio (Mean) ([2]; P630-TMR 3000 nM): 0.002137
Binding to cells expressing NL-IL12Rβ1 in isolation ([2]; absence of IL23R): no specific binding; also recorded: Did not bind
BRET ratio, Specific (Mean) [3, 12]: 0.2494
BRET ratio, Specific (Mean) [3, 13]: 0.2506
BRET ratio, Specific (Mean) [3, 14]: 0.2544
BRET ratio, Specific (Mean) [3, 15]: 0.2565
BRET ratio, Specific (Mean) [3, 16]: 0.2604
BRET ratio, Specific (Mean) [3, 17]: 0.269
BRET ratio, Specific (Mean) [3, 18]: 0.2823
BRET ratio, Specific (Mean) [3, 19]: 0.2959
BRET ratio, Non-specific (Mean) [3, 12]: 0.245
BRET ratio, Non-specific (Mean) [3, 13]: 0.2494
BRET ratio, Non-specific (Mean) [3, 14]: 0.2477
BRET ratio, Non-specific (Mean) [3, 15]: 0.2499
BRET ratio, Non-specific (Mean) [3, 16]: 0.2505
BRET ratio, Non-specific (Mean) [3, 17]: 0.2497
BRET ratio, Non-specific (Mean) [3, 18]: 0.2599
BRET ratio, Non-specific (Mean) [3, 19]: 0.2729
BRET ratio, Non-specific (Mean) ([3]; NL-IL12Rβ1 and IL23R, P630-TMR […]): 0.2519
% maximum BRET ratio (Mean) ([3]; P630-TMR 0.457247 nM): 20.2943%
% maximum BRET ratio (Mean) ([3]; P630-TMR 1.37174 nM): 3.037%
% maximum BRET ratio (Mean) ([3]; P630-TMR 4.11523 nM): 30.2039%
% maximum BRET ratio (Mean) ([3]; P630-TMR 12.3457 nM): 28.4128%
% maximum BRET ratio (Mean) ([3]; P630-TMR 37.037 nM): 44.6085%
% maximum BRET ratio (Mean) ([3]; P630-TMR 111.111 nM): 87.2944%
% maximum BRET ratio (Mean) ([3]; P630-TMR 1000 nM): 109.773%
% maximum BRET ratio (Mean) ([3]; P630-TMR 3000 nM): 100.001%
BRET ratio with non-specific binding subtracted (Mean) ([3]; P630-TMR 0.457247 nM): 0.00447
BRET ratio with non-specific binding subtracted (Mean) ([3]; P630-TMR 1.37174 nM): 0.001281
BRET ratio with non-specific binding subtracted (Mean) ([3]; P630-TMR 4.11523 nM): 0.006719
BRET ratio with non-specific binding subtracted (Mean) ([3]; P630-TMR 12.3457 nM): 0.00665
BRET ratio with non-specific binding subtracted (Mean) ([3]; P630-TMR 37.037 nM): 0.009959
BRET ratio with non-specific binding subtracted (Mean) ([3]; P630-TMR 111.111 nM): 0.01927
BRET ratio with non-specific binding subtracted (Mean) ([3]; P630-TMR 1000 nM): 0.02313
BRET ratio with non-specific binding subtracted (Mean) ([3]; P630-TMR 3000 nM): 0.02294
Kd ([3]; NL-IL12Rβ1 and IL23R, mean ± SEM): 0.0552 ± 0.0105 µM
Bmax, fold lower than NL-IL23R with IL12Rβ1 ([3]; NL-IL12Rβ1 with IL23R): 42.53 fold
